Format in all cases: cell-based
The subject of experiment [1] is S. aureus HH 127. Description: MIC in vitro, S. aureus HH 127. As to conditions: Staphylococcus aureus, HH127.
The test system of experiment [2] is Strep. pyog. C 203. Description: MIC in vitro, Strep. pyog. C 203.
For experiment [3], the system named is Strep. faecalis HH 34358. The experiment can be described thus: MIC in vitro, Strep. faecalis HH 34358. As to conditions: Enterococcus faecalis, HH34358.
In experiment [4] the test system is E. coli. HH 33779. Description: MIC in vitro, E. coli HH 33779. The note with it: Escherichia coli.
For experiment [5], the system named is K. pneumo. SK 4200. The experiment can be described thus: MIC in vitro, K. pneumo. SK 4200.
Experiment [6] deals with Pseudomonas sp. HH 63. The experiment can be described thus: MIC in vitro, Pseudomonas sp. HH 63. The note with it: SP.HH63.
The test system of experiment [7] is Entero. aerogenes. Description: MIC in vitro, Entero. aerogenes. As to conditions: Klebsiella aerogenes.
Where [8] appears, read: E. coli. HH 33779, read-out: MIC.

In brackets after ≈: the same amount, converted by molar mass. Read-outs that look alike come from different tables or passages of the source. Where only a bound is given, the exact number is not on record here.

One may read the MIC as the smallest concentration in the dilution series that meets the test's criterion for growth inhibition.

As for `Cc1nnc(SCC2=C(C(=O)O)N3C(=O)C(NC(=O)CSC(F)(F)F)[C@H]3SC2)s1` (stereo partly drawn) [III, 7-trifluoromethylmercaptoacetamido-3-(5-methyl-1,3,4-thiadiazol-2-ylthiomethyl)-3-cephem-4-carboxylic acid], the minimum inhibitory concentration (MIC) was 0.4 µg/mL (≈ 0.822 µM) in experiment [1]; 0.1 µg/mL (≈ 0.206 µM) in experiment [2]; 12.5 µg/mL (≈ 25.7 µM) in experiment [3]; 3.1 µg/mL (≈ 6.37 µM) in experiment [4]; 1.6 µg/mL (≈ 3.29 µM) in experiment [5]; under 200 µg/mL in experiment [6]. The same compound showed an MIC in experiment [7] of 6.3 µg/mL (≈ 12.9 µM).

As to `CC(=O)OCC1=C(C(=O)O)N2C(=O)C(NC(=O)CSC(F)(F)F)C2SC1` (stereo not drawn) [I, 7-trifluoromethylmercaptoacetamidocephalosporanic acid], the MIC in experiment [1] was 0.4 µg/mL (≈ 0.965 µM); in experiment [2], 0.1 µg/mL (≈ 0.241 µM); in experiment [3], 25 µg/mL (≈ 60.3 µM); in experiment [4] (setting [8]) it was 6.3 µg/mL (≈ 15.2 µM); in experiment [5], 0.8 µg/mL (≈ 1.93 µM); in experiment [6] it was under 200 µg/mL. Further, inhibition of growth in experiment [7] (MIC) required 50 µg/mL (≈ 121 µM).

As to `Cn1nnnc1SCC1=C(C(=O)O)N2C(=O)C(NC(=O)CSC(F)(F)F)[C@H]2SC1` (stereo partly drawn) [II, 7-Trifluoromethylmercaptoacetamido-3-(1-methyl-tetrazol-5-ylthiomethyl)-3-cephem-4-carboxylic acid], the MIC in experiment [1] is 0.4 µg/mL (≈ 0.85 µM); in experiment [2] it was 0.1 µg/mL (≈ 0.213 µM); in experiment [3] it was 25 µg/mL (≈ 53.1 µM); in experiment [4] (setting [8]), 1.6 µg/mL (≈ 3.4 µM); in experiment [5], 0.8 µg/mL (≈ 1.7 µM); in experiment [6], under 200 µg/mL. Further, the minimal inhibitory concentration (MIC) in experiment [7] is 1.6 µg/mL (≈ 3.4 µM).

For the origin of these results see US3943131A, “Trifluoromethylmercaptoacetamidocephalosporins” (SmithKline Corporation, priority 1974, dated 1976).
